Cc1ccc(S(=O)(=O)NC(=O)NN2CC3CCCC3C2)cc1 (stereo not drawn)
solubility (mole fraction)
Details	278.15 K	283.15 K	288.15 K	293.15 K	298.15 K	303.15 K	308.15 K	313.15 K	318.15 K
in DMF	0.0571	0.0629	0.0684	0.0743	0.0801	0.0866	0.0935	0.101	0.109
in THF	0.018	0.0217	0.0266	0.0318	0.0384	0.0462	0.0539	0.0635	0.076
in acetone	0.00883	0.0103	0.0121	0.0141	0.0166	0.0191	0.0219	0.0252	0.0291
in acetonitrile	0.00172	0.00211	0.00262	0.00319	0.0039	0.00473	0.00557	0.00658	0.00796
in chloroform	0.0581	0.0641	0.07	0.0773	0.0842	0.0919	0.1	0.109	0.119
in cyclohexanone	0.0112	0.0133	0.0155	0.0181	0.0209	0.0243	0.0278	0.0322	0.0371
in ethanol	0.000739	0.000911	0.00113	0.00137	0.00169	0.00203	0.00249	0.00296	0.00358
in ethyl acetate	0.00146	0.00174	0.00212	0.00248	0.00294	0.00351	0.00411	0.00477	0.00558
in ethyl formate	0.00188	0.00239	0.00297	0.00364	0.00453	0.00549	0.00673	0.0082	0.00976
in isobutanol	0.00042	0.000544	0.000709	0.000916	0.00114	0.00146	0.0018	0.00226	0.00286
in isopropanol	0.000332	0.000439	0.000579	0.000738	0.000945	0.0012	0.00151	0.00192	0.00241
in methanol	0.00122	0.00149	0.00178	0.00216	0.00257	0.00304	0.00358	0.00428	0.00497
in methyl acetate	0.00229	0.00283	0.00339	0.00418	0.00499	0.00588	0.00699	0.00838	0.00982
in n-butanol	0.000624	0.000787	0.000984	0.00123	0.00152	0.00192	0.0023	0.00286	0.00344
in n-propanol	0.000655	0.000831	0.00103	0.00129	0.00162	0.00199	0.00238	0.00291	0.0035
in sec-butanol	0.000505	0.000643	0.000834	0.00106	0.00133	0.00166	0.00205	0.00258	0.00322
in toluene	0.000307	0.000395	0.000499	0.000634	0.000789	0.000979	0.00119	0.0015	0.00181

— BigSolDB 2.1
